Read-outs that look alike come from different tables or passages of the source.
Tests used:
grape phylloxera = assay: reinoculation bioassay of roots excised from leaf-treated vines; type: in vivo, Daktulosphaira vitifoliae; details: for phylloxera counted: 1st instar / phylloxera counted: 2nd instar / phylloxera counted: 3rd instar / phylloxera counted: 4th instar / phylloxera counted: Adults / phylloxera counted: Eggs: roots taken 5 weeks after treatment, 25 day bioassay
From the text: […] For this bioassay, root sections were inoculated with 20 eggs and the roots maintained as the original colonies were maintained (see description above). After 25 days, the number of individual phylloxera of each age class were counted.

Spider Mites = assay: spider mites on cabernet sauvignon grapevines, 0.3% spray; type: in vivo; details: 0.3% CNMA; two days after spraying; untreated 17.9
Method: The effect of 0.3% cinnamic aldehyde on leafhoppers and spider mites on grapevine leaves was examined. 30% cinnamic aldehyde was diluted 1:100 in water and sprayed one time on a 1 acre block of cabernet sauvignon grapevines in a vineyard using a 300 gal Pul-Blast rsprayer at 160 psi. 120 gal. were applied to one acre of vineyard. As a control, a one-acre block remained untreated. Blocks were pseudo-replicated so as to obtain an indication of the reliability of the treatment. Prior to treatment mites on leaves were pre-counted using a dissecting microscope. Leafhopper numbers also were determined in the field prior to treatment. Two days after spraying, two leaves, one from the basal portion and one from the proximal portion of the vine were examined from 16 vines from 2 rows for each treatment. Leaf samples also were taken from both sides of the vines (north and south) to include variation due to vine exposure. […]

[1] = tested on: leafhoppers (western grape leafhopper and Virginia creeper leafhopper nymphs); assay: leafhoppers on grapevines, 1% and 2% spray; type: in vivo; details: for mean number of leafhoppers per leaf: one day after treatment, across cultivars, control 26.53
Method: Treatment of leafhoppers (western grape leafhopper (WGL) and Virginia creeper leafhopper nymphs(VCLH)) on grapevines with cinnamic aldehyde was conducted to evaluate the protective effect of cinnamic aldehyde in different concentrations against leafhoppers on plants. A single application of 1% or 2% cinnamic aldehyde in 0.1% Tween-20 was sprayed onto the leaves of grapevines of different grape varietals (Cabernet Sauvignon, Chardonnay, Emerald Reisling and Pinot Noir) with a backpack CO2 powered sprayer at the field equivalent rate of approximately 150 gal./acre (0.5 gal. per treatment plot). Coverage on the bottom of grape leaves, where most leafhopper nymphs feed, ranged from 70%-80%. The number of leafhoppers on the leaves was counted prior to spraying and 1 day after spraying. Leafhopper numbers on grape vines were assessed by sampling 2 leaves from each of 3 grape vines per treatment (with a single vine buffer between each treatment), for which 2-3 replicates per treatment were examined. Control plants were untreated. Both concentrations of cinnamic aldehyde reduced the mean number of leafhoppers per leaf as compared to the control. The mean number of leafhoppers was defined as the sum of WGL plus VCLH per leaf.

[2] = tested on: root-knot nematode, Meloidogyne javanica; type: in vivo
Method: In a double blind study, concentrations of the subject aldehyde compounds were tested for activity against root-knot nematode, Meloidogyne javanica. Nematodes were put in direct contact with the chemical and at 24 hour intervals, mortality was assessed both visually and by probing. Meloidogyne javanica were produced using hydroponics. The nematodes were harvested and used within 24 hours.
Approximately 100 nematodes in 0.07 mls of water were pipetted into a syracuse dish (Fisher) and 1 ml of test formulation was immediately pipetted into each dish. The dishes were then placed into plastic bags to retain moisture and prevent evaporation. Four syracuse dishes were used for each solution test formulation. […] Moving nematodes were counted as living.

pacific mites = pacific mites on Chardonnay grapevines; type: in vivo; details: for PERCENT INHIBITION / POST-SPRAY MITES: 150 gal./acre, 4 days after spraying; for PRE-SPRAY MITES: baseline
Method: The effect of 0.3% and 0.6% cinnamic aldehyde on pacific mites on grapevine leaves was examined cinnamic aldehyde was diluted to 0.3% and 0.6% in water. Each formulation was sprayed onto a 1 acre block of Chardonnay wine grapes with a tractor-drawn 500 gal. hydraulic sprayer at 150 psi at a rate of 150 gal./acre. As a control, a 10-acre block of Chardonnay wine grapes was treated the same day as the test formulations with the conventional treatment (Omite) per label directions. The number of mites was counted the day prior to spraying and 4 days after spraying. […] In fact, both concentrations reduced the number of mites to a larger extent than the positive control, conventional treatment, Omite. The 0.6% rate nearly eliminated live mites on grapevines. […] The 0.6% was slightly beter than the 0.3 % cinnamic aldehyde with respect to powdery mildew control.

For `O=C/C=C/c1ccccc1` [cinnamic aldehyde], the “phylloxera counted: 1st instar” value (grape phylloxera; 300 ppm leaf treatment) was 0, the “phylloxera counted: 2nd instar” value (grape phylloxera; 300 ppm leaf treatment) was 6 and the “phylloxera counted: 3rd instar” value (grape phylloxera; 300 ppm leaf treatment) was 5. The “phylloxera counted: 4th instar” value (grape phylloxera; 300 ppm leaf treatment) was 0, the “phylloxera counted: Adults” value (grape phylloxera; 300 ppm leaf treatment) was 4 and the “phylloxera counted: Eggs” value (grape phylloxera; 300 ppm leaf treatment) was 16. The “phylloxera counted: 1st instar” value (grape phylloxera; 1000 ppm leaf treatment) was 0, the “phylloxera counted: 2nd instar” value (grape phylloxera; 1000 ppm leaf treatment) was 1 and the “phylloxera counted: 3rd instar” value (grape phylloxera; 1000 ppm leaf treatment) was 4. For the same molecule, the “phylloxera counted: 4th instar” value (grape phylloxera; 1000 ppm leaf treatment) was 2, the “phylloxera counted: Adults” value (grape phylloxera; 1000 ppm leaf treatment) was 1 and the “phylloxera counted: Eggs” value (grape phylloxera; 1000 ppm leaf treatment) was 2. For the same molecule, the “phylloxera counted: 1st instar” value (grape phylloxera; 3000 ppm leaf treatment) was 0, the “phylloxera counted: 2nd instar” value (grape phylloxera; 3000 ppm leaf treatment) was 2 and the “phylloxera counted: 3rd instar” value (grape phylloxera; 3000 ppm leaf treatment) was 1. The “phylloxera counted: 4th instar” value (grape phylloxera; 3000 ppm leaf treatment) was 1, the “phylloxera counted: Adults” value (grape phylloxera; 3000 ppm leaf treatment) was 0 and the “phylloxera counted: Eggs” value (grape phylloxera; 3000 ppm leaf treatment) was 0. The “phylloxera counted: 1st instar” value (grape phylloxera; 10,000 ppm leaf treatment) was 0, the “phylloxera counted: 2nd instar” value (grape phylloxera; 10,000 ppm leaf treatment) was 2 and the “phylloxera counted: 3rd instar” value (grape phylloxera; 10,000 ppm leaf treatment) was 0. For the same molecule, the “phylloxera counted: 4th instar” value (grape phylloxera; 10,000 ppm leaf treatment) was 0, the “phylloxera counted: Adults” value (grape phylloxera; 10,000 ppm leaf treatment) was 0 and the “phylloxera counted: Eggs” value (grape phylloxera; 10,000 ppm leaf treatment) was 0. For the same molecule, the “establishment of new phylloxera populations on roots from treated plants” value (grape phylloxera; roots taken 1, 2 and 5 weeks after treatment, infested with untreated eggs) was “not from the CNMA-treated plants”, the MITES/LEAF (Spider Mites) was 3.27 and the “mean number of leafhoppers per leaf” value ([1]; 1% in 0.1% Tween-20) was 4.33 leafhoppers per leaf. The “mean number of leafhoppers per leaf” value ([1]; 2% in 0.1% Tween-20) was 2.13 leafhoppers per leaf, the “MEAN LEAFHOPPERS/LEAF” value ([1]; Cabernet, 1% CNMA, control 15.33) was 3.0 and the “MEAN LEAFHOPPERS/LEAF” value ([1]; Chardonnay, 2% CNMA, control 23.75) was 3.83. The “MEAN LEAFHOPPERS/LEAF” value ([1]; Emerald Reisling, 1% CNMA, control 51.12) was 5.67, the “MEAN LEAFHOPPERS/LEAF” value ([1]; Pinot Noir, 2% CNMA, control 19.44) was 1.0 and the effect on mortality ([2]; 0.1 ppm in vehicle) was “no effect on mortality”. The effect on mortality ([2]; 1 ppm in vehicle) was “no effect on mortality”, the nematodes dead ([2]; 10 ppm in vehicle, 24 hours) was 0% and the nematodes dead ([2]; 10 ppm in vehicle, 48 hours) was 15%. The nematodes dead ([2]; 10 ppm in vehicle, 72 hours) was 17.5%, the nematodes dead ([2]; 10 ppm in vehicle, 96 hours) was 22.5% and the nematodes dead ([2]; 10 ppm in vehicle, 108 hours) was 27.5%. The nematodes dead ([2]; 10 ppm in vehicle, 132 hours) was 52.5%, the nematodes dead ([2]; 10 ppm in vehicle, 156 hours) was 52.5% and the nematodes dead ([2]; greater than 100 ppm in vehicle (2% Tween 80, 6% NaHCO3), 24 hours) was 100%. The “PERCENT INHIBITION” value (pacific mites; 0.3% CNMA in water) was 89%, the “POST-SPRAY MITES” value (pacific mites; 0.3% CNMA in water) was 4.5 and the “PERCENT INHIBITION” value (pacific mites; 0.6% CNMA in water) was 98%. For the same molecule, the “POST-SPRAY MITES” value (pacific mites; 0.6% CNMA in water) was 0.5, the “PRE-SPRAY MITES” value (pacific mites; day prior to spraying 0.3% CNMA) was 41.4 and the “PRE-SPRAY MITES” value (pacific mites; day prior to spraying 0.6% CNMA) was 32.5.

Reference: patent publication US20030005484A1, “Microbiocidal and pesticidal aromatic aldehydes” (ProGuard, Inc., priority 1994, published 2003)
